Test results as given in ChEMBL document CHEMBL1124635, “A probe for octopamine receptors: synthesis of 2-[(4-azido-2,6-diethylphenyl)imino]imidazolidine and its tritiated derivative, a potent reversible-irreversible activator of octopamine-sensitive adenylate cyclase” (J Med Chem, 1989).

What was measured:
[1] = Ratio of (Ka) of octopamine to that of compound; type: ADME
Lampyridae [2] = experiment: V max is determined from stimulation of firefly light organ adenylate cyclase; type: functional
Lampyridae [3] = experiment: Vmax is determined from stimulation of firefly light organ adenylate cyclase; type: functional
[4] = Kinetic constant (Ka) of compound against octopamine receptor; type: ADME

Row | SMILES | Ratio [1] | Vmax (Lampyridae [2]) [%] | also measured
1 | CN(CCCl)c1cc(Cl)c(N=C2NCCN2)c(Cl)c1 | 6 |  | 
2 | CCc1cc(N)cc(CC)c1N=C1NCCN1 | 1.3 |  | 
3 | NCC(O)c1ccc(O)cc1 (stereo not given) [OCTOPAMINE] | 1 | 100 | 
4 | CCc1cccc(CC)c1NC1=NCCN1 | 12 |  | Vmax (Lampyridae [3]): 100%
5 | CCc1cc(N)cc(CC)c1NC1=NCCN1 |  | 82 | 
6 | CCc1c(Br)c(N)c(Br)c(CC)c1NC1=NCCN1 |  | 24 | 
7 | CCc1cc(N=[N+]=[N-])cc(CC)c1N=C1NCCN1 | 70 |  | Ka [4]: 350 nM
8 | CCc1cc(N=[N+]=[N-])cc(CC)c1NC1=NCCN1 |  | 100 | Vmax (Lampyridae [2]; tested as the 3H-labelled form): 100%
9 | CN(CCCl)c1cc(Cl)c(NC2=NCCN2)c(Cl)c1 |  | 5 | 
10 | CCc1c(Br)c(N)c(Br)c(CC)c1N=C1NCCN1 | 15 |  | 
11 | [3H]c1c(CC)c(N=C2NCCN2)c(CC)c([3H])c1N=[N+]=[N-] | 86 |  | 
